For this test, the target named is T1, α-Mannosidase (Jack bean) (Canavalia ensiformis, UniProt C0HJB3).
T1 sequence (C0HJB3 1-981): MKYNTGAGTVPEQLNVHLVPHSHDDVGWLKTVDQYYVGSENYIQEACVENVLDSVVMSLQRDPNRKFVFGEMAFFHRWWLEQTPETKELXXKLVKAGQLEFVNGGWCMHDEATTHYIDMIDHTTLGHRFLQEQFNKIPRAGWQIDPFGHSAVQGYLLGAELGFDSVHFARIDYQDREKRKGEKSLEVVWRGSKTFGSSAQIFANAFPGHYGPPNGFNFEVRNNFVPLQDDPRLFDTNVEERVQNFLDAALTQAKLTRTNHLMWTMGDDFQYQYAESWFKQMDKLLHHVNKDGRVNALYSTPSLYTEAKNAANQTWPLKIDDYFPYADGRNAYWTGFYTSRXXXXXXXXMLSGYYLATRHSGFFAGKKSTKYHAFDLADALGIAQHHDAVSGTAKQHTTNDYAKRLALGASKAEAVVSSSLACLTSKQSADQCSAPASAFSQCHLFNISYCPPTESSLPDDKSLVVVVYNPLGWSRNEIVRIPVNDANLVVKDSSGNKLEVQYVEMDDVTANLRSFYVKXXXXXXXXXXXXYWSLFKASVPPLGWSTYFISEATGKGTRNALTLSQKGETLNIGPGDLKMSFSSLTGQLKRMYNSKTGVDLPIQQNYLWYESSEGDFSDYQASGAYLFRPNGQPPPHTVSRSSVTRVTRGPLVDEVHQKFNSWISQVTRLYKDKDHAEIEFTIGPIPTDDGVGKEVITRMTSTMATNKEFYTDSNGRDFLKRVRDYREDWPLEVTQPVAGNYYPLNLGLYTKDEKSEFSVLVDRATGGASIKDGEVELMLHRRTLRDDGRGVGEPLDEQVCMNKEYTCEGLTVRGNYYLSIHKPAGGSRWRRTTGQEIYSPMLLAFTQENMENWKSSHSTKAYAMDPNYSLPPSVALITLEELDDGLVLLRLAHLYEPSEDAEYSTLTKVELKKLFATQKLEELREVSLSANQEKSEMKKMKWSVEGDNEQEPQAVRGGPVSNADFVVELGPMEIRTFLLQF
As to the kind of experiment: Mannosidase screening assay (p-nitrophenyl-α-mannopyranoside substrate, absorbance at 405 nm). Format: biochemical. Particulars: Jack bean enzyme, sodium acetate buffer pH 4.5, 37° for 30 min.

Method: This can be demostrated by the ability of the compound to inhibit Jack bean mannosidase or mannosidase II as follows: Mannosidase Screening Assay (Kang, et al., Plant Physiol. 71:551-554 (1983)). Activities of mannosidase are first screened with Jack bean enzyme using p-nitrophenyl substrate as follows using a 96-well microplate. Total Rxn mix 200µl. • 1. Add compounds to be tested and dilute to 100µl with H2O. • 2. Add 25µl of 1M sodium acetate buffer pH 4.5 containing 10mM ZnCl2. • 3. Add 25µl of enzyme or approximately 0.05 µg protein. • 4. Mix and incubate at R.T. for 30 min. • 5. Add 50µl of 10 mM p-nitrophenyl-α-mannopyranoside in H2O to start the Rxn and incubate 37° for 30 min. Stop reaction by addition 100µl of 0.2M (2%) sodium carbonate solution (pH∼12). Read absorbance at 405 nm.

For orientation: IC50 means the concentration that inhibits the measured activity by half. Compound `CN[C@@H]1[C@@H](O)[C@@H](O)[C@H](O)[C@H]1CO` [1,3β,5β,R=CH3, (1α,2β,3β,4α,5β)-Methyl[2,3,4-trihydroxy-5-(hydroxymethyl)cyclopentyl]amine] had an IC50 of 0.0621 µM.

The record behind these values is patent publication EP0451834B1, “Alpha-mannosidase and fucosidase inhibitors” (MERRELL PHARMACEUTICALS INC., priority 1990, dated 1991).
